From PubChem BioAssay AID248 (DTP/NCI, 2004)
Where “and” joins values, the source holds several entries; their conditions need not be identical. Identical values can stand only once. Inconclusive results and toxic doses are left out. Rule as the data show it: active = T/C of 150% or more; inactive = T/C below 125%.

System: L1210 leukemia ip in BDF1 mice, survival T/C
Assay: NCI In Vivo Anticancer Drug Screen. Data for tumor model L1210 Leukemia (intraperitoneal) in B6D2F1 (BDF1) mice
Settings: endpoint: mean survival time, higher = longer survival
Method in brief: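 Read-out is survival time, reported as the treated-group measurement over the vehicle-control measurement.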

[1] = dose: 200.0 mg/kg/injection, schedule: Q04DX002 (ip), vehicle: Klucel (hydroxypropylcellulose) (HPC)
[2] = dose: 100.0 mg/kg/injection, schedule: Q01DX009 (ip), vehicle: Klucel (hydroxypropylcellulose) (HPC)
[3] = dose: 200.0 mg/kg/injection, schedule: Q01DX009 (ip), vehicle: Klucel (hydroxypropylcellulose) (HPC)
[4] = dose: 400.0 mg/kg/injection, schedule: Q01DX009 (ip), vehicle: Klucel (hydroxypropylcellulose) (HPC)
[5] = dose: 100.0 mg/kg/injection, schedule: Q01DX001 (ip), vehicle: saline
[6] = dose: 200.0 mg/kg/injection, schedule: Q01DX001 (ip), vehicle: saline
[7] = dose: 400.0 mg/kg/injection, schedule: Q01DX001 (ip), vehicle: saline
[8] = dose: 100.0 mg/kg/injection, schedule: Q04DX003 (ip), vehicle: Klucel (hydroxypropylcellulose) (HPC)
[9] = dose: 200.0 mg/kg/injection, schedule: Q04DX003 (ip), vehicle: Klucel (hydroxypropylcellulose) (HPC)
[10] = dose: 400.0 mg/kg/injection, schedule: Q04DX003 (ip), vehicle: Klucel (hydroxypropylcellulose) (HPC)

Measured: T/C

C=CCCCCCCCCC(=O)N/N=C/c1ccc(NC(C)=O)cc1
inactive: dose: 12.5 mg/kg/injection, schedule: Q01DX001 (ip), vehicle: other 90 % of control | dose: 12.5 mg/kg/injection, schedule: Q01DX009 (ip), vehicle: other 95 % of control and 96 % of control | dose: 12.5 mg/kg/injection, schedule: Q04DX003 (ip), vehicle: other 96 % of control | dose: 25.0 mg/kg/injection, schedule: Q01DX001 (ip), vehicle: other 91 % of control | dose: 25.0 mg/kg/injection, schedule: Q01DX009 (ip), vehicle: other 114 % of control and 92 % of control | dose: 25.0 mg/kg/injection, schedule: Q04DX003 (ip), vehicle: other 102 % of control | dose: 50.0 mg/kg/injection, schedule: Q01DX009 (ip), vehicle: carboxymethylcellulose (CMC) 98 % of control and 100 % of control | dose: 50.0 mg/kg/injection, schedule: Q04DX003 (ip), vehicle: other 93 % of control | dose: 100.0 mg/kg/injection, schedule: Q01DX009 (ip), vehicle: carboxymethylcellulose (CMC) 96 % of control | dose: 100.0 mg/kg/injection, schedule: Q01DX009 (ip), vehicle: other 98 % of control | dose: 100.0 mg/kg/injection, schedule: Q04DX002 (ip), vehicle: carboxymethylcellulose (CMC) 90 % of control | dose: 100.0 mg/kg/injection, schedule: Q04DX003 (ip), vehicle: other 94 % of control | dose: 200.0 mg/kg/injection, schedule: Q01DX009 (ip), vehicle: carboxymethylcellulose (CMC) 100 % of control and 92 % of control | dose: 200.0 mg/kg/injection, schedule: Q01DX009 (ip), vehicle: other 89 % of control | [1] 114 % of control | dose: 200.0 mg/kg/injection, schedule: Q04DX002 (ip), vehicle: carboxymethylcellulose (CMC) 90 % of control | dose: 200.0 mg/kg/injection, schedule: Q04DX003 (ip), vehicle: other 92 % of control | dose: 400.0 mg/kg/injection, schedule: Q04DX002 (ip), vehicle: carboxymethylcellulose (CMC) 92 % of control | dose: 400.0 mg/kg/injection, schedule: Q04DX003 (ip), vehicle: other 86 % of control

CCOC(=O)c1cnc(SC)nc1Nc1ccc(Cl)cc1Cl
inactive: [2] 103 % of control | [3] 97 % of control | [4] 92 % of control

CN(C)c1ccc(N=Nc2ccccc2)c2cccnc12
inactive: dose: 6.25 mg/kg/injection, schedule: Q01DX009 (ip), vehicle: DMSO 103 % of control | dose: 12.5 mg/kg/injection, schedule: Q01DX009 (ip), vehicle: DMSO 94 % of control | dose: 25.0 mg/kg/injection, schedule: Q01DX009 (ip), vehicle: DMSO 96 % of control | dose: 50.0 mg/kg/injection, schedule: Q01DX009 (ip), vehicle: DMSO 92 % of control | dose: 100.0 mg/kg/injection, schedule: Q01DX009 (ip), vehicle: DMSO 96 % of control | dose: 100.0 mg/kg/injection, schedule: Q04DX003 (ip), vehicle: DMSO 94 % of control | dose: 200.0 mg/kg/injection, schedule: Q04DX003 (ip), vehicle: DMSO 88 % of control | dose: 400.0 mg/kg/injection, schedule: Q04DX003 (ip), vehicle: DMSO 90 % of control

CCn1c(C)nc2cc(Cl)c([N+](=O)[O-])cc21
inactive: [5] 91 % of control | dose: 100.0 mg/kg/injection, schedule: Q04DX003 (ip), vehicle: acetone 93 % of control | [6] 110 % of control | dose: 200.0 mg/kg/injection, schedule: Q04DX003 (ip), vehicle: acetone 93 % of control | [7] 96 % of control | dose: 400.0 mg/kg/injection, schedule: Q04DX003 (ip), vehicle: acetone 96 % of control

CCOC(=O)c1ccc(N(CCC(=O)CBr)C(C)=O)cc1
inactive: dose: 5.0 mg/kg/injection, schedule: Q01DX001 (ip), vehicle: carboxymethylcellulose (CMC) 97 % of control | dose: 10.0 mg/kg/injection, schedule: Q01DX001 (ip), vehicle: carboxymethylcellulose (CMC) 100 % of control | dose: 20.0 mg/kg/injection, schedule: Q01DX001 (ip), vehicle: carboxymethylcellulose (CMC) 100 % of control | dose: 40.0 mg/kg/injection, schedule: Q01DX001 (ip), vehicle: carboxymethylcellulose (CMC) 97 % of control

NC(N)=N/N=C/c1c[nH]c2ccc(OCc3ccccc3)cc12
inactive: dose: 15.0 mg/kg/injection, schedule: Q01DX Z (ip), vehicle: methylcellulose (MC) 94 % of control | dose: 15.0 mg/kg/injection, schedule: Q01DX Z (oral), vehicle: methylcellulose (MC) 90 % of control | dose: 30.0 mg/kg/injection, schedule: Q01DX Z (ip), vehicle: methylcellulose (MC) 96 % of control | dose: 30.0 mg/kg/injection, schedule: Q01DX Z (oral), vehicle: methylcellulose (MC) 87 % of control

CCOC(=O)/C=C(\c1ccccc1)c1ccc([N+](=O)[O-])cc1
inactive: dose: 100.0 mg/kg/injection, schedule: Q01DX001 (ip), vehicle: Klucel (hydroxypropylcellulose) (HPC) 94 % of control | [2] 105 % of control and 90 % of control | dose: 100.0 mg/kg/injection, schedule: Q04DX002 (ip), vehicle: Klucel (hydroxypropylcellulose) (HPC) 93 % of control and 98 % of control | [8] 107 % of control | dose: 200.0 mg/kg/injection, schedule: Q01DX001 (ip), vehicle: Klucel (hydroxypropylcellulose) (HPC) 98 % of control | [3] 103 % of control and 90 % of control | [1] 100 % of control and 106 % of control | [9] 102 % of control | dose: 400.0 mg/kg/injection, schedule: Q01DX001 (ip), vehicle: Klucel (hydroxypropylcellulose) (HPC) 102 % of control | [4] 106 % of control and 110 % of control | dose: 400.0 mg/kg/injection, schedule: Q04DX002 (ip), vehicle: Klucel (hydroxypropylcellulose) (HPC) 98 % of control and 100 % of control | [10] 98 % of control

Cc1cc(Nc2ncnc(Cl)c2N)ccc1N
inactive: dose: 100.0 mg/kg/injection, schedule: Q01DX001 (ip), vehicle: carboxymethylcellulose (CMC) 93 % of control | dose: 200.0 mg/kg/injection, schedule: Q01DX001 (ip), vehicle: carboxymethylcellulose (CMC) 98 % of control | dose: 400.0 mg/kg/injection, schedule: Q01DX001 (ip), vehicle: carboxymethylcellulose (CMC) 96 % of control

CCOC(=O)NNC(N)=S
inactive: [2] 102 % of control | [8] 103 % of control | [3] 97 % of control | [9] 94 % of control | [4] 98 % of control | [10] 100 % of control

Nc1ccc(/C=C/c2ccncc2)cc1
inactive: [2] 92 % of control | [8] 101 % of control | [3] 92 % of control | [9] 104 % of control | [4] 102 % of control | [10] 96 % of control

CC(=O)Oc1cc2c3c(c1)CCCN3CCC2
inactive: dose: 1.25 mg/kg/injection, schedule: Q01DX009 (ip), vehicle: saline 101 % of control | dose: 2.5 mg/kg/injection, schedule: Q01DX009 (ip), vehicle: saline 106 % of control | dose: 5.0 mg/kg/injection, schedule: Q01DX009 (ip), vehicle: saline 98 % of control

CN1OC(C#N)(C#N)C(C#N)(C#N)C1c1ccccc1 (stereo not drawn)
inactive: dose: 100.0 mg/kg/injection, schedule: Q01DX009 (ip), vehicle: saline 103 % of control | dose: 100.0 mg/kg/injection, schedule: Q04DX003 (ip), vehicle: saline 101 % of control | dose: 200.0 mg/kg/injection, schedule: Q01DX009 (ip), vehicle: saline 106 % of control | dose: 200.0 mg/kg/injection, schedule: Q04DX003 (ip), vehicle: saline 89 % of control | dose: 400.0 mg/kg/injection, schedule: Q01DX009 (ip), vehicle: saline 101 % of control | dose: 400.0 mg/kg/injection, schedule: Q04DX003 (ip), vehicle: saline 109 % of control

O=C1N/C(=N/OCc2ccc([N+](=O)[O-])cc2)CC(NOCc2ccc([N+](=O)[O-])cc2)N1 (stereo not drawn)
inactive: dose: 100.0 mg/kg/injection, schedule: Q04DX003 (ip), vehicle: saline with Tween-80 91 % of control | dose: 200.0 mg/kg/injection, schedule: Q04DX003 (ip), vehicle: saline with Tween-80 101 % of control | dose: 400.0 mg/kg/injection, schedule: Q04DX003 (ip), vehicle: saline with Tween-80 89 % of control

Cc1cc(/C=C\[N+](=O)[O-])c(C)c2c1oc1ccccc12
inactive: [5] 88 % of control | [6] 96 % of control | [7] 88 % of control

COc1cc2c[n+](C)c3c4ccccc4ccc3c2cc1OC
inactive: dose: 100.0 mg/kg/injection, schedule: Q01DX001 (ip), vehicle: saline with Tween-80 88 % of control | dose: 200.0 mg/kg/injection, schedule: Q01DX001 (ip), vehicle: saline with Tween-80 88 % of control
